Each structure is given as a SMILES string. Where a name gives a salt, the structure may show the parent alone.

One experiment deals with platelet aggregation. Briefly: Ex vivo screening of oral GP IIb/IIIa inhibitors: inhibition of collagen-induced platelet aggregation in PRP after oral dosing in beagles. Particulars: Canis lupus familiaris, Platelet, beagle dogs, 5 mpk, n = 2, 32 hours post-dosing, collagen agonist, read-out: Percent inhibition of platelet aggregation at 32 hour post-dosing. The procedure:
Beagles (8-13 kg, various sources) of either sex are dosed orally with compound in a gelatin capsule. Blood samples are drawn from the cephalic vein using a 23 ga infusion butterfly. Samples for platelet aggregation and drug concentration are taken prior to dosing and 0.5, 1, 2, 3, 5, 7 and 10 hours after dosing and periodically on subsequent days until inhibition of platelet aggregation is less than 30%. Animals are fasted, with ad lib access to water, overnight prior to dosing. For measurement of plasma concentration blood is drawn into a 3 ml tube containing 45 USP units of Na Heparin. Blood is centrifuged at 1700×g for 10 minutes, plasma is aspirated and frozen at -20° C. until analyzed by HPLC. For measurement of platelet aggregation, blood is drawn into 2 2.0 ml tubes containing 0.2 ml of 3.8% Na Citrate. Blood is centrifuged at 250×g for 6 minutes and the platelet rich plasma (PRP) is aspirated. The remaining blood is centrifuged at 1700×g for 10 minutes and platelet poor plasma (PPP) is aspirated. Platelet aggregation is performed in a Bio-Data PAP-4 aggregometer (Bio-Data Corp., Havertown, Pa.) using collagen (100 μg/ml final concentration; Helena Laboratories, Beaumont, Tex.) as the agonist. Briefly, baseline (100% aggregation) is set using PPP; PRP is incubated at 37° C. for one minute without stirring and one minute with stirring, agonist is added and aggregation is allowed to develop for 4 minutes. Percent aggregation post-dosing is compared to percent aggregation pre-dosing to determine percent inhibition.
Percent inhibition of platelet aggregation at 32 hour post-dosing in
beagle dogs (5 mpk, n = 2)
As for `CCOC(=O)CCNC(=O)N[C@H]1CCN(c2ccc(C(=N)NOC(=O)NCCN(C)C)cc2)C1=O` [3(f), N-[[[(3S)-1-[4-(1-imino-8-methyl-4-oxo-3-oxa-2,5,8-triazanon-1-yl)phenyl]-2-oxo-3-pyrrolidinyl]amino]carbonyl]-β-alanine ethyl ester monoacetate], the inhibition in vivo at 5 mg/kg is 35%.
`CC(C)OC(=O)CCNC(=O)N[C@H]1CCN(c2ccc(C(N)=NOC(=O)N(C)C)cc2)C1=O` [4(b), N-[[[(3S)-1-[4-[[[[(dimethylamino)carbonyl]oxy]amino]iminomethyl]phenyl]-2-oxo-3-pyrrolidinyl]amino]carbonyl]-β-alanine 1-methylethyl ester]: the inhibition in vivo at 5 mg/kg was determined as 20%.
Consider `CCOC(=O)CCNC(=O)N[C@H]1CCN(c2ccc(C(N)=NOC(C)=O)cc2)C1=O` [Example 8, N-[[[(3S)-1-[4-[[(acetyloxy)amino]iminomethyl]phenyl]-2-oxo-3-pyrrolidinyl]amino]carbonyl]-β-alanine ethyl ester], for which the inhibition in vivo at 5 mg/kg was found to be 57%.
`NC(=O)ON=C(N)c1ccc(N2CC[C@H](NC(=O)NCCC(=O)OC3CCCCC3)C2=O)cc1` [5(h), N-[[[(3S)-1-[4-[[[(aminocarbonyl)oxy]amino]iminomethyl]phenyl]-2-oxo-3-pyrrolidinyl]amino]carbonyl]-β-alanine cyclohexyl ester]: the inhibition in vivo at 5 mg/kg was 28%.
As to `COC(=O)CCNC(=O)N[C@H]1CCN(c2ccc(C(N)=NOC(N)=O)cc2)C1=O` [Example 5, N-[[[(3S)-1-[4-[[[(aminocarbonyl)oxy]amino]iminomethyl]-phenyl]-2-oxo-3-pyrrolidinyl]amino]carbonyl]-β-alanine methyl ester], the inhibition in vivo at 5 mg/kg was determined as 89%.
As for `CCCOC(=O)CCNC(=O)N[C@H]1CCN(c2ccc(C(N)=NOC(=O)N(C)C)cc2)C1=O` [4(c), N-[[[(3S)-1-[4-[[[[(dimethylamino)carbonyl]oxy]amino]iminomethyl]phenyl]-2-oxo-3-pyrrolidinyl]amino]carbonyl]-β-alanine propyl ester], the inhibition in vivo at 5 mg/kg stood at 64%.
On to `CCOC(=O)CCNC(=O)N[C@H]1CCN(c2ccc(C(=N)NOC(=O)N(C)CCCN(C)C)cc2)C1=O` [3(g), N-[[[(3S)-1-[4-(1-imino-5,9-dimethyl-4-oxo-3-oxa-2,5,9-triazadec-1-yl)phenyl]-2-oxo-3-pyrrolidinyl]amino]carbonyl]-β-alanine ethyl ester dihydrochloride], for which the inhibition in vivo at 5 mg/kg was determined as 69%.
As to `CC(C)OC(=O)CCNC(=O)N[C@H]1CCN(c2ccc(C(N)=NOC(N)=O)cc2)C1=O` [5(b), N-[[[(3S)-1-[4-[[[(aminocarbonyl)oxy]amino]iminomethyl]phenyl]-2-oxo-3-pyrrolidinyl]amino]carbonyl]-β-alanine 1-methylethyl ester], the inhibition in vivo at 5 mg/kg came to 64%.
The same measure, in the same setting: the same measure for `COC(=O)CCNC(=O)N[C@H]1CCN(c2ccc(C(=N)NOC(=O)NCCN(C)C)cc2)C1=O` [3(b), N-[[[(3S)-1-[4-(1-imino-8-methyl-4-oxo-3-oxa-2,5,8-triazanon-1-yl)phenyl]-2-oxo-3-pyrrolidinyl]amino]carbonyl]-β-alanine methyl ester]: 54%.
With `CCCCCOC(=O)CCNC(=O)N[C@H]1CCN(c2ccc(C(N)=NO)cc2)C1=O` [1(h), N-[[[(3S)-1-[4-[(hydroxyamino)iminomethyl]phenyl]-2-oxo-3-pyrrolidinyl]amino]carbonyl]-β-alanine pentyl ester monohydrochloride], the inhibition in vivo at 5 mg/kg came out at 39%.

Staying with this experiment, now noted: beagle dogs, 5 mpk, n = 2, 26 hours post-dosing, collagen agonist.
With `CCOC(=O)CCNC(=O)N[C@H]1CCN(c2ccc(C(=N)NOC(=O)N3CCN(C)CC3)cc2)C1=O.Cl.Cl` [3(d), N-[[[(3S)-1-[4-[imino[[[(4-methyl-1-piperazinyl)carbonyl]oxy]amino]methyl]phenyl]-2-oxo-3-pyrrolidinyl]amino]carbonyl]-β-alanine ethyl ester dihydrochloride], the “% inhibition of platelet aggregation @ 26 hours” value is on record as 88%.

(Values after US6025358A, “Double prodrugs of potent GP IIb/IIIa antagonists” (G. D. Searle & Co., priority 1999, dated 2000).)
